According to patent US5928910A, “Antifungal substances BE-49385 and process for their production” (Banyu Pharmaceutical Co., Ltd., priority 1995, dated 1999):
≈ marks a conversion by molar mass, not a printed value.

Tests used:
Solubility = type: physicochemical
[1] = test system: Candida albicans IFO 1270; experiment: MIC by agar dilution method, Candida albicans IFO 1270; type: cell-based; conditions: IFO1270, 72 h, 28° C., 3 days, read-out: MIC (minimum inhibitory concentration)
Protocol: (§1) The minimum inhibitory concentrations of antifungal substances BE-49385 against various fungi were measured. The measurement of MIC was carried out by an agar dilution method using a culture medium prepared by mixing 900 ml of an agar solution containing 2.5 g of sterilized dipotassium hydrogenphosphate and 15 g of agar, with a solution obtained by dissolving 6.7 g of a yeast nitrogen base (manufactured by Difico Co.) and 10 g of glucose in 100 ml of purified water, followed by sterilization by means of sterilizing filter. BE-49385 was dissolved in dimethylsulfoxide to a concentration of 10 mg/ml and further diluted with dimethylsulfoxide to obtain a twice diluted series, and the dimethylsulfoxide concentration in the agar plate was adjusted to be 1%. On the prepared agar plate, 5 μl of the test strain solution adjusted to a concentration of 10^6 cells per 1 ml, was dropped, followed by culturing at 28° C. for 3 days, whereupon the growth was evaluated.
(§2) The minimum inhibitory concentrations (MIC, unit: μ g/ml) of antifungal substance BE-49385A against various fungi, are shown in Table 1, and MICs of BE-49385 substances against Schizosaccharomyces pombe IAM4863 are shown in Table

[2] = test system: Penicillium chrysogenum IFO 6223; experiment: MIC by agar dilution method, Penicillium chrysogenum IFO 6223; type: cell-based; conditions: IFO6223, 72 h, 28° C., 3 days, read-out: MIC (minimum inhibitory concentration)
Protocol: as §1, §2

[3] = test system: Aspergillus niger IFO 31012; experiment: MIC by agar dilution method, Aspergillus niger IFO 31012; type: cell-based; conditions: IFO31012, 72 h, 28° C., 3 days, read-out: MIC (minimum inhibitory concentration)
Protocol: as §1, §2

[4] = test system: Schizosaccharomyces pombe IAM4863; experiment: MIC by agar dilution method, Schizosaccharomyces pombe IAM4863; type: cell-based; conditions: 72 h, 28° C., 3 days, read-out: MIC (minimum inhibitory concentration)
Protocol: as §1, §2

[5] = test system: Saccharomyces cerevisiae IFO 1267; experiment: MIC by agar dilution method, Saccharomyces cerevisiae IFO 1267; type: cell-based; conditions: IFO1267, 72 h, 28° C., 3 days, read-out: MIC (minimum inhibitory concentration)
Protocol: as §1, §2

[6] = test system: Candida albicans IFO 1385; experiment: MIC by agar dilution method, Candida albicans IFO 1385; type: cell-based; conditions: IFO1385, 72 h, 28° C., 3 days, read-out: MIC (minimum inhibitory concentration)
Protocol: as §1, §2

[7] = test system: Kluyveromyces lactis IFO 1267; experiment: MIC by agar dilution method, Kluyveromyces lactis IFO 1267; type: cell-based; conditions: IFO1267, 72 h, 28° C., 3 days, read-out: MIC (minimum inhibitory concentration)
Protocol: as §1, §2

With `C=C1C2CC3C(C(C)C)C(OC(=O)CC(C)(O)CC(C)CC)CC3(C)CC2C(C)=CCC2C(C)OC(=O)C(OC(C)=O)C12O` (stereo not drawn) [BE-49385A-Ac] the “Solubility in an organic solvent such as methanol or dimethylsulfoxide” value (from here on “Solubility in an organic solvent such”) (Solubility) was “Readily soluble” and the Solubility in water (Solubility) was “hardly soluble”.
Work on `C=C1C2CC3C(C(C)C)C(OC(=O)CC(C)(O)CC(C)CC)CC3(C)CC2C(C)=CCC2C(C)OC(=O)C(O)C12O` (stereo not drawn) [BE-49385A] yielded an MIC [1] of 0.78 µg/mL (≈ 1.36 µM), an MIC [2] of 0.39 µg/mL (≈ 0.678 µM) and an MIC [3] of 0.78 µg/mL (≈ 1.36 µM). For the same molecule, the MIC [4] was < 0.1 µg/mL, the MIC [5] was 3.13 µg/mL (≈ 5.45 µM) and the “Solubility in an organic solvent such” value (Solubility) was “Readily soluble”. For the same molecule, the Solubility in water (Solubility) was “hardly soluble”, the MIC [6] was 3.13 µg/mL (≈ 5.45 µM) and the MIC [7] was 0.78 µg/mL (≈ 1.36 µM).
In the case of `C=C1C2CC3C(C(C)C)C(OC(=O)C(O)CC(C)CC(C)CC)CC3(C)CC2C(C)=CCC2C(C)OC(=O)C(O)C12O` (stereo not drawn) [BE-49385B], the MIC [4] is reported as 0.39 µg/mL (≈ 0.662 µM), the “Solubility in an organic solvent such” value (Solubility) is reported as “Readily soluble” and the Solubility in water (Solubility) is reported as “hardly soluble”.
In the case of `C=C1C2CC3C(C(C)C)C(OC(=O)CC(C)CC(C)CC)CC3(C)CC2C(C)=CCC2C(C)OC(=O)C(O)C12O` (stereo not drawn) [BE-49385C], the MIC [4] is reported as 0.39 µg/mL (≈ 0.698 µM), the “Solubility in an organic solvent such” value (Solubility) is reported as “Readily soluble” and the Solubility in water (Solubility) is reported as “hardly soluble”.
In the case of `C=C1C2CC3C(C(C)C)C(OC(=O)C(O)c4ccccc4)CC3(C)CC2C(C)=CCC2C(C)OC(=O)C(O)C12O` (stereo not drawn) [BE-49385D], the MIC [4] is reported as 0.78 µg/mL (≈ 1.41 µM), the “Solubility in an organic solvent such” value (Solubility) is reported as “Readily soluble” and the Solubility in water (Solubility) is reported as “hardly soluble”.
With `C=C1C2CC3C(C(C)C)C(OC(=O)C(O)C(C)(O)CC(C)CC)CC3(C)CC2C(C)=CCC2C(C)OC(=O)C(O)C12O` (stereo not drawn) [BE-49385E] the MIC [4] was 0.2 µg/mL (≈ 0.339 µM), the “Solubility in an organic solvent such” value (Solubility) was “Readily soluble” and the Solubility in water (Solubility) was “hardly soluble”.
For `C=C1C2CC3C(C(C)C)C(O)CC3(C)CC2C(C)=CCC2C(C)OC(=O)C(O)C12O` (stereo not drawn) [BE-49385F], the “Solubility in an organic solvent such” value (Solubility) was “Readily soluble” and the Solubility in water (Solubility) was “hardly soluble”.
With `C=C1C2CC3C(C(C)C)C(OC(=O)C(O)C(O)CCC(C)CC)CC3(C)CC2C(C)=CCC2C(C)OC(=O)C(O)C12O` (stereo not drawn) [BE-49385G] the MIC [4] was 0.39 µg/mL (≈ 0.66 µM), the “Solubility in an organic solvent such” value (Solubility) was “Readily soluble” and the Solubility in water (Solubility) was “hardly soluble”.
With `C=C1C2CC3C(C(C)C)C(OC(=O)C(O)C(O)C(C)CC(C)CC)CC3(C)CC2C(C)=CCC2C(C)OC(=O)C(O)C12O` (stereo not drawn) [BE-49385H] the “Solubility in an organic solvent such” value (Solubility) was “Readily soluble” and the Solubility in water (Solubility) was “hardly soluble”.
